Measurements: paper PMC12363342, “Investigating the N-terminal linker histone H1 subtypes as substrates for JmjC lysine demethylases” (RSC Chemical Biology, 2025)
Square brackets hold non-standard residues; d marks the D form. Ends that are not written are not given here. Lys(Me3) = C[N+](C)(C)CCCC[C@H](N)C(=O)O

Biological target: T1, KDM4D (Homo sapiens, UniProt Q6B0I6)
T1 construct: KDM4AM1-L359,[38]; KDM4DM1-L359,[39]; KDM4EM1-R336,[30]; His6 (N); made in house; host or cells: Escherichia coli
T1 sequence (Q6B0I6 1-359): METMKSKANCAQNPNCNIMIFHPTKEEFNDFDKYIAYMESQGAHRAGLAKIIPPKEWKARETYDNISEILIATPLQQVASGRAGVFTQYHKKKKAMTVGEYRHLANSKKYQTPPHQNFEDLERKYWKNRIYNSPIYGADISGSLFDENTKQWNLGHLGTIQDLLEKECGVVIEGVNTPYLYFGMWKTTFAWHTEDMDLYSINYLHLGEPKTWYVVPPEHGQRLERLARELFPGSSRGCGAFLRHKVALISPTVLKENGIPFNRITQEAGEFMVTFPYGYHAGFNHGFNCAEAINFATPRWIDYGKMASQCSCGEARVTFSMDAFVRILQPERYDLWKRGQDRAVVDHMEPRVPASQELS
Experiment: formaldehyde dehydrogenase (FDH)-coupled demethylation assay, KDM4D
Format: biochemical
Conditions: FDH-coupled fluorescence assay, KDM4D (400 nM), H1 peptide 1–50 μM, HEPES pH 7.5; for Km / kcat (KDM4D): FAS 20 μM, LAA 200 μM, 2OG 200 μM, NAD+ 500 μM, FDH 2.0 μM, mean ± SEM (n = 3); for kcat/KM (KDM4D): catalytic efficiency
Method: Kinetic parameters were determined by recording the initial reaction rates of NADH production at varying histone peptide concentrations (Fig. S24 and S25). The overall catalytic efficiencies (as measured by kcat/KM) gave the following rank orders for KDM4D: H1.5K26me3 (0.192 μM^−1 min^−1) > H1.3K24me3 (0.066 μM^−1 min^−1) ≈ H1.2K26me3 (0.063 μM^−1 min^−1) > H1.4K25me3 (0.044 μM^−1 min^−1). […] These rank orders differ somewhat from the initial screening results. However, given the complexities of 2OG oxygenase catalysis and the relatively low catalytic efficiencies observed, such apparent discrepancies are not unexpected.[28] It is also noteworthy that, in some instances, increased KM values correlate with elevated kcat values, resulting in similar kcat/KM ratios, particularly for H1.4K25me3 with KDM4D and H1.2K25me3 with KDM4E.
Kinetic parameters for demethylation of N^ε-trimethylated H1 peptides by KDM4D and KDM4E (400 nM) measured using a formaldehyde dehydrogenase-coupled demethylation assay. H1 peptide (1–50 μM), FAS (20 μM), LAA (200 μM), 2OG (200 μM), NAD^+ (500 μM), KDM4 enzyme (0.8 μM) and FDH (2.0 μM) in HEPES buffer at pH 7.5. Each value is shown as mean ± SEM (n = 3)
Substrate Km values for KDM4 enzymes were determined using a reported formaldehyde dehydrogenase/NAD coupled enzyme assay that quantifies formaldehyde production.[30] In brief, DNA encoding for wild-type full-length formaldehyde dehydrogenase was synthesised (by GenScript) and cloned into the pET-28B vector. The resultant plasmid was then transformed into the Rosetta strain of Escherichia coli. Coupled enzyme-assays were carried out in black polystyrene 384-well non-binding surface microplates (Corning) and kinetic measurements were obtained using a PHERAstar FS plate reader (BMG Labtech) equipped with a 350 nm excitation and 460 nm emission optic module.[30] All steps were performed in the assay buffer (50 mM HEPES pH 7.5, 0.01% (v/v) Tween-20). Substrate mixtures were prepared freshly and contained FAS (20 μM), LAA (200 μM), 2OG (200 μM), NAD^+ (500 μM), and H1 peptide (1–50 μM); they were dispensed (25 μL final volume) in triplicate. Assays were initiated by plate reader injection of 25 μL of a mixture of KDM4 (0.8 μM) and formaldehyde dehydrogenase (FDH) (2.0 μM) in assay buffer (50 mM HEPES pH 7.5, 0.01% (v/v) Tween-20). Production of NADH was measured at 60 second intervals over 25 cycles. Kinetic parameters were determined from the reaction rate during the initial linear phase of formaldehyde production, and specific activities were calculated from a formaldehyde standard curve and fitted to the Michaelis–Menten equation using GraphPad Prism Version 5.0 (GraphPad software, La Jolla, CA, USA). Each assay was carried out in triplicate with independently prepared reaction mixtures.

| Substance | Km [µM] | kcat (KDM4D) [s⁻¹] | kcat/KM (KDM4D) [M⁻¹ s⁻¹] |
| --- | --- | --- | --- |
| KKKATK[Lys(Me3)]AAGAGAAK [Peptide H1.5K26me3, 15-mer linker histone H1.5 residues 20-34 peptide, tri-methylated K26] | 7.51 ± 0.77 | 0.024 ± 0.0013 | 3200 |
| KKKAAK[Lys(Me3)]AGGTPRKA [Peptide H1.2K26me3, 15-mer linker histone H1.2 residues 20-34 peptide, tri-methylated K26] | 4.6 ± 0.41 | 0.00483 ± 0.00017 | 1050 |
| KKKAR[Lys(Me3)]SAGAAKRKA [Peptide H1.4K25me3, 15-mer linker histone H1.4 residues 20-34 peptide, tri-methylated K25] | 60 ± 24.3 | 0.0443 ± 0.0152 | 733 |
| KKKA[Lys(Me3)]KAGATAGKRK [Peptide H1.3K24me3, 15-mer linker histone H1.3 residues 20-34 peptide, tri-methylated K24] | 5.93 ± 0.69 | 0.0065 ± 0.00033 | 1100 |
